Source: PMC12309968 (iScience, 2025)
Converted amounts (≈) assume the structure as drawn. “Also recorded” adds a separate entry of the source. Like-named read-outs stand apart in the source and are kept apart here. Positions of bridges follow the written chain, without caps; N, C: chain ends. Non-standard residues stand in square brackets, D forms with d. Residues, ends and D or L forms follow the SMILES beside them. *: point of attachment. Octanoyl = CCCCCCCC(=O)*; Dab = NCC[C@H](N)C(=O)O; Abu = CC[C@H](N)C(=O)O

Legend:
Stx2a = Stx2a (Escherichia phage 933W, UniProt P09385+P09386); experiment: biochemical; assay type: binding, E. coli (C600-933W strain)
[1] = molecular target: lactate dehydrogenase A (LDH-A), tetrameric form (Homo sapiens, UniProt P00338); experiment: biochemical; assay type: binding
[2] = system: Stx2a binding to TLR4-expressing Gb3Cer-lacking human neutrophils
CD-1 mice = details: mouse, in vivo, iv
[3] = system: human renal tubular cells; details: cited from earlier work
cynomolgus monkey = details: in vivo; cited from earlier work
[4] = in vivo; cited from earlier work
E. coli SOS response = details: cited from earlier work
[5] = system: neutrophil/platelet aggregates; assay type: cell-based, human
[6] = system: monocyte/platelet aggregates; assay type: cell-based, human
[7] = system: Stx2a binding to TLR4-expressing Gb3Cer-lacking human neutrophils; details: cited from earlier work
[8] = system: Raji cells (Gb3Cer-expressing); details: cited from earlier work
E. coli = details: cited from earlier work
SOS response = details: cited from earlier work
Shigella = details: cited from earlier work
[9] = system: interaction between LPS and TLR4; details: cited from earlier work

Compound: CCCCCCCC(=O)N[C@@H](CCN)C(=O)N[C@H](C(=O)N[C@@H](C(=O)N[C@H]1CCNC(=O)[C@H]([C@@H](C)O)NC(=O)[C@H](CCN)NC(=O)[C@H](CC)NC(=O)[C@H](CC(C)C)NC(=O)[C@@H](Cc2ccccc2)NC(=O)[C@H](CCN)NC1=O)[C@H](C)O)[C@@H](C)O [NAB815] (Octanoyl-[Dab]T[dT][Dab][Dab][dF]L[Abu][Dab]T; lactam 4-C)
- Kd (Stx2a): 0.05 µM
- maximum reduction (quenching) of Stx2a fluorescence (Stx2a): approximately 10%
- Kd [1]: 10 µM
- IC50 in inhibiting the binding of Stx2a to human neutrophils [2]: 0.057 µg/mL
- necrotic leukocytes (7-AAD+) (human leukocytes): the number of necrotic cells was negligible
- hemolysis (human erythrocytes): no hemolysis occurred
- serum creatinine and urea (CD-1 mice): No changes in serum creatinine and urea were found
- IC50, cytotoxicity to human renal tubular cells [3]: 334 µg/mL (≈ 284 µM)
- cytotoxicity lower than that of polymyxin B (fold) [3]: approximately 20 times
- serum creatinine, blood urea nitrogen, urinary biomarkers (cynomolgus monkey): no significant increase in serum creatinine, blood urea nitrogen, or in the urinary biomarkers tested
- tolerability (cynomolgus monkey): well tolerated
- excretion into urine relative to polymyxin B [4]: approximately 10 times

Compound: O=C(O)c1cn(C2CC2)c2cc(N3CCNCC3)c(F)cc2c1=O [ciprofloxacin]
- MIC/SIC ratio (E. coli SOS response): 8
- SOS-inducing action (E. coli SOS response): frequently used as a model antibiotic inducing the SOS response

Compound: CNC(C)C1CCC(N)C(OC2C(N)CC(N)C(OC3OCC(C)(O)C(NC)C3O)C2O)O1 (stereo not drawn) [gentamicin]
- MIC/SIC ratio (E. coli SOS response): 1.8
- SOS-inducing action (E. coli SOS response): poor

Compound: CO[C@@]12[C@H](COC(N)=O)C3=C(C(=O)C(C)=C(N)C3=O)N1C[C@@H]1N[C@@H]12 [mitomycin C]
- MIC/SIC ratio (E. coli SOS response): 1.4
- SOS-inducing action (E. coli SOS response): strong SOS-inducing actions

Compound: Triton X-100
- hemolysis (human erythrocytes): no hemolysis occurred, unlike treatment with Triton X-100, chosen as a positive control

Compound: polymyxin B
- effect on neutrophil/platelet aggregates [5]: ineffective at these concentrations
- effect on monocyte/platelet aggregates [6]: ineffective at these concentrations
- IC50 in inhibiting the binding of Stx2a to human neutrophils [7]: 3.5 µg/mL
- effect on Stx2a/TLR4 interactions, binding of Stx2a to leukocytes [7]: effectively impairs the Stx2a/TLR4 interactions; also recorded: does block the binding of Stx2a to leukocytes at μg/mL concentrations that are also highly bactericidal
- lack of protection of Gb3Cer-expressing Raji cells from Stx2a [8]: as previously shown with polymyxin B
- MIC (E. coli): 1 µg/mL
- concentration eliciting the SOS response (SOS response): higher than 1 μg/mL
- concentration inducing release of considerable amounts of Stx by Shigella (Shigella): higher than 1 μg/mL
- block of LPS/TLR4 interaction [9]: known to block the interaction between the bacterial endotoxin (lipopolysaccharide [LPS]) and TLR4
- IC50, cytotoxicity to human renal tubular cells [3]: 18 µg/mL
- tolerability (cynomolgus monkey): had to be euthanized because of severe nephrotoxicity
